According to the NIST ThermoML archive (doi:10.1021/je301279x):

Columns and labels:
[1] = xn = mol fraction of the nth substance listed; details: for surface tension liquid-gas: Drop volume; for mass density: 800 kPa, Liquid, Vibrating tube method
[2] = Drop volume

NCCO [2-aminoethan-1-ol] + O
[1]
Details | mass density, 303.15 K [kg/m3] | mass density, 313.15 K [kg/m3] | mass density, 323.15 K [kg/m3] | mass density, 333.15 K [kg/m3] | surface tension liquid-gas, 303.15 K [mN/m] | surface tension liquid-gas, 313.15 K [mN/m] | surface tension liquid-gas, 323.15 K [mN/m] | surface tension liquid-gas, 333.15 K [mN/m]
x1 = 0.0687 | 1003.6 | 999.4 | 994.6 | 989.1 | 66.7 | 65.2 | 63.6 | 61.6
x1 = 0.1122 | 1008.2 | 1003.3 | 998.1 | 992.3 | 63.7 | 62.4 | 61 | 59.5
x1 = 0.1643 | 1013.3 | 1007.8 | 1002.1 | 995.7 | 61.5 | 59.8 | 58.4 | 57
x1 = 0.2277 | 1017.8 | 1011.8 | 1005.4 | 998.7 | 59.6 | 58.1 | 56.5 | 55.1
x1 = 0.3067 | 1021.3 | 1014.6 | 1007.8 | 1000.6 | 57.4 | 56.1 | 55 | 53.6
x1 = 0.4076 | 1022.6 | 1015.5 | 1008.2 | 1000.6 | 54.5 | 53.6 | 52.5 | 51.2

O [water]
[2]
Details | surface tension liquid-gas [mN/m]
293.15 K | 72.56
303.15 K | 70.9
313.15 K | 69.81
323.15 K | 67.72

NCCO [2-aminoethan-1-ol]
[2]
Details | surface tension liquid-gas [mN/m]
293.15 K | 48.48
303.15 K | 47.64
313.15 K | 46.88
